Assay results as given in patent publication US6372297B1, “Wood preservative oxathiazines” (Uniroyal Chemical Company, Inc., priority 1993, dated 2002).
Read-outs that look alike come from different tables or passages of the source.

What was measured:
Format in all cases: cell-based
[1] = system: Streptomyces albus; test: Wood preservative efficacy against bacteria and yeasts, tryptose agar plates; design: key: 0 = growth equal to control, 1 = inhibition, 2 = no growth
Experimental: Compositions were prepared by dissolving the compounds shown in Table 1 in 50% ethanol and further diluting with sterile distilled water. […] After cooling, the medium was inoculated with the bacteria listed below. After sufficient growth of the untreated cultures, the compounds were evaluated using the following rating system: 0=growth equal to control 1=inhibition of growth by the compound 2=no growth under the influence of the compound. In this Table, the higher numbers are the most preferred species. Streptomyces albus (gram pos)

[2] = system: Flavobacterium sp.; test: as above; design: key: 0 = growth equal to control, 1 = growth inhibited, 2 = no growth
Experimental: Compositions were prepared by dissolving the compounds shown in Table 1 in 50% ethanol and further diluting with sterile distilled water. […] After cooling, the medium was inoculated with the bacteria listed below. After sufficient growth of the untreated cultures, the compounds were evaluated using the following rating system: 0=growth equal to control 1=inhibition of growth by the compound 2=no growth under the influence of the compound. In this Table, the higher numbers are the most preferred species. Flavobacterium sp. (gram neg)

[3] = system: Pseudomonas alcaligenes; test: as above; design: key: 0 = growth equal to control, 1 = inhibition, 2 = no growth; conditions: 100 ppm in tryptose agar
Experimental: Compositions were prepared by dissolving the compounds shown in Table 1 in 50% ethanol and further diluting with sterile distilled water. […] After cooling, the medium was inoculated with the bacteria listed below. After sufficient growth of the untreated cultures, the compounds were evaluated using the following rating system: 0=growth equal to control 1=inhibition of growth by the compound 2=no growth under the influence of the compound. In this Table, the higher numbers are the most preferred species. Pseudomonas alcaligenes (gram neg)

[4] = system: Bacillus cereus mycoides; design: scale not given here
[5] = system: Aspergillus niger; test: Wood preservative efficacy against fungi, agar plate colony diameter
Experimental: (§1) Each plate was inoculated with a spore suspension or with a small piece of agar (1 mm) from the margin of an actively growing colony of the test fungus. The fungi employed are listed below. After incubation at 22° C. and 70% relative humidity during a period long enough to allow significant growth of untreated controls, the diameters of the fungus colonies were measured and scored using the following rating system: 0=free of fungal growth 1=25% of fungal growth compared to untreated 2=50% of fungal growth compared to untreated 3=75% of fungal growth compared to untreated 4=Growth equal to that of untreated The scores measured for wood preservation efficacy of the compounds of this invention are listed in Tables 6a and 6b. In these Tables, the lower numbers are the most preferred species. Aspergillus niger

[6] = system: Penicillium islandicum; test: as above; design: key: 1 = 25%, 2 = 50%, 3 = 75%, 4 = 100% of untreated fungal growth
Experimental: The compounds shown in Table 1 were dissolved in 50% ethanol and then diluted with sterile water to give the required concentrations of 1 and 10 ppm in the test agar plates. Malt extract sugar (3%) was added aseptically and uniform distribution was obtained by shaking. Each plate was inoculated with a spore suspension or with a small piece of agar (1 mm) from the margin of an actively growing colony of the test fungus. The fungi employed are listed below. After incubation at 22° C. and 70% relative humidity during a period long enough to allow significant growth of untreated controls, the diameters of the fungus colonies were measured and scored using the following rating system:
1=25% of fungal growth compared to untreated
2=50% of fungal growth compared to untreated
3=75% of fungal growth compared to untreated
4=Growth equal to that of untreated
In these Tables, the lower numbers are the most preferred species.

[7] = system: Coniophora puteana; test: as above; design: key: 0 = no fungal growth, 1-3 = 25/50/75% of untreated, 4 = equal
Experimental: as §1, with “Coniophora puteana (syn. C. cerebella)” for “Aspergillus niger”

[8] = system: molds and blue-stain fungi; test: In vitro activity against molds and blue-stain fungi, poison plate assay (MIC); conditions: malt extract agar, complete inhibition
Procedure, shortened: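 Poison plate format: compound diluted in sterile water and mixed into malt extract agar, then plates inoculated with each fungus. Growth inhibition scored at each concentration to give the MIC.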

[9] = system: Mucor sp.; test: Wood preservative efficacy against fungi, agar plate colony diameter
Experimental: as §1, with “Mucor sp.” for “Aspergillus niger”

Row | SMILES | Score of bactericidal activity, S. albus ([1]; 100 ppm in tryptose agar) | Score of bactericidal activity, Flavobacter ([2]; 100 ppm in tryptose agar) | Score of bactericidal activity, P. alcalgenes [3] | Score of bactericidal activity, B. cereus mycoides ([4]; 10 ppm in tryptose agar) | Score of bactericidal activity, B. cereus mycoides ([4]; 100 ppm in tryptose agar) | Score of fungicidal activity, A. NIGER ([5]; Test dosage 10 ppm, Table 6A) | Score of fungicidal activity, P. ISLANDICUM ([6]; Test dosage 10 ppm, Table 6A) | Score of fungicidal activity, C. PUTEANA ([7]; Test dosage 10 ppm, Table 6A) | MIC (ppm) against A. amstelodami [8] [ppm] | MIC (ppm) against A. niger [8] [ppm] | MIC (ppm) against A. pullulans [8] [ppm] | MIC (ppm) against A. versicolor [8] [ppm] | MIC (ppm) against C. cladosporioides [8] [ppm] | MIC (ppm) against C. pilifera [8] [ppm] | MIC (ppm) against F. solani [8] [ppm] | MIC (ppm) against G. candidum [8] [ppm] | MIC (ppm) against P. purpurogenum [8] [ppm] | MIC (ppm) against P. variotii [8] [ppm] | MIC (ppm) against P. violacea [8] [ppm] | MIC (ppm) against S. atra [8] [ppm] | also measured
1 | C[S+]1CCON=C1c1ccc(Cl)cc1 (stereo not shown) [Compound 1] | 2 | 2 | 1 | 2 | 2 | 0 | 0 | 2 (50% of growth compared to untreated control) |  |  |  |  |  |  |  |  |  |  |  |  | 
2 | [O-][S+]1CCON=C1c1ccc(Cl)c(Cl)c1 (stereo not shown) [Compound 4] | 2 | 2 | 1 | 2 | 2 | 0 | 0 | 0 | 10 | 2.5 | 10 | 5 | 10 | 5 | 10 | 25 | 10 | 10 | 25 | 2.5 | MIC (ppm) against S. entoxylina [8]: 10 ppm; MIC (ppm) against T. viride [8]: 25 ppm; MIC (ppm) against U. atrum [8]: 25 ppm
3 | [O-][S+]1CCON=C1c1cccs1 (stereo not shown) [Compound 8] | 2 | 2 | 2 | 0 | 2 | 1 (25% of growth compared to untreated control) | 0 | 2 (50% of growth compared to untreated control) | 10 | 25 | >25 | 10 | >25 | 5 | 25 | >25 | >25 | >25 | 25 | 10 | MIC (ppm) against S. entoxylina [8]: 10 ppm; MIC (ppm) against T. viride [8]: >25 ppm; MIC (ppm) against U. atrum [8]: 25 ppm
4 | CC(=O)c1ccc(C2=NOCC[S+]2[O-])cc1 (stereo not shown) [Compound 14] | 2 | 2 | 1 | 2 | 2 | 3 (75% of growth compared to untreated control) | 4 | 3 (75% of growth compared to untreated control) |  |  |  |  |  |  |  |  |  |  |  |  | Score of fungicidal activity, MUCOR SP ([9]; Test dosage 10 ppm, Table 6A): 1 (25% of growth compared to untreated control)
5 | CCOC(=O)c1ccc(C2=NOCC[S+]2[O-])cc1 (stereo not shown) [Compound 22] | 2 | 2 | 1 | 2 | 2 |  |  |  |  |  |  |  |  |  |  |  |  |  |  |  | Score of bactericidal activity, S. albus ([1]; 10 ppm in tryptose agar): 1; Score of bactericidal activity, Flavobacter ([2]; 10 ppm in tryptose agar): 1; Score of fungicidal activity, A. NIGER ([5]; 10 ppm, Table 6B): 3 (75% of growth compared to untreated control); Score of fungicidal activity, P. ISLANDICUM ([6]; 10 ppm, Table 6B): 2 (50% of growth compared to untreated control); Score of fungicidal activity, MUCOR SP ([9]; 100 ppm, Table 6B): 0; Score of fungicidal activity, C. PUTEANA ([7]; 1 ppm, Table 6B): 3 (75% of growth compared to untreated control); Score of fungicidal activity, C. PUTEANA ([7]; 10 ppm, Table 6B): 0
6 | C[S+]1CCON=C1c1ccc(C(F)(F)F)cc1 (stereo not shown) [Compound 25] | 2 | 2 | 1 | 2 | 2 |  |  |  |  |  |  |  |  |  |  |  |  |  |  |  | Score of bactericidal activity, S. albus ([1]; 10 ppm in tryptose agar): 2; Score of bactericidal activity, Flavobacter ([2]; 10 ppm in tryptose agar): 1; Score of fungicidal activity, A. NIGER ([5]; 10 ppm, Table 6B): 0; Score of fungicidal activity, P. ISLANDICUM ([6]; 10 ppm, Table 6B): 1 (25% of growth compared to untreated control); Score of fungicidal activity, MUCOR SP ([9]; 10 ppm, Table 6B): 3 (75% of growth compared to untreated control); Score of fungicidal activity, MUCOR SP ([9]; 100 ppm, Table 6B): 0; Score of fungicidal activity, C. PUTEANA ([7]; 1 ppm, Table 6B): 2 (50% of growth compared to untreated control); Score of fungicidal activity, C. PUTEANA ([7]; 10 ppm, Table 6B): 0
